# Columns and labels:
# Experiment in all cases: in vitro susceptibility, MIC by mini broth dilution
# Assay type in all cases: cell-based
# Haemophilus parasuis = system: Haemophilus parasuis
# Outline: (§1)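 Read-out is the minimum inhibitory concentration, measured by mini broth dilution following the US NCCLS approved standard, with 11 two-fold compound dilutions in DMSO and a 1:200-diluted inoculum.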
# [1] = system: Pasteurella multocida CVCC399; settings: strain CVCC399
# Outline: as §1
# [2] = system: Actinobacillus pleuropneumoniae CVCC262; settings: strain CVCC262
# Outline: as §1
# [3] = system: Streptococcus equines CVCC556; settings: strain CVCC556
# Outline: as §1
# [4] = system: Staphylococcus aureus CVCC26003; settings: strain CVCC26003
# Outline: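 S. aureus CVCC26003 was revived and subcultured twice, 20 h each at 35° C, on solid medium, then diluted 1:200 in CAMHB liquid medium. Compounds received an 11-step two-fold DMSO dilution in parallel duplicate rows. MIC was read by mini broth dilution per NCCLS guidance.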
Structure (SMILES),"MIC values, Haemophilus parasuis (Haemophilus parasuis)","MIC values, Pasteurella multocida CVCC399 [1]","MIC values, Actinobacillus pleuropneumoniae CVCC262 [2]","MIC values, Streptococcus equines CVCC556 [3]","MIC values, Staphylococcus aureus CVCC26003 [4]"
CCCN1C[C@H](C)[C@@H](O)[C@](C)(O)[C@@H](CC)OC(=O)[C@H](C)[C@@H](O[C@H]2C[C@@](C)(OC)[C@](O)(CNc3ccc(Cl)cn3)[C@H](C)O2)[C@H](C)[C@@H](O[C@@H]2O[C@H](C)C[C@H](N(C)C)[C@H]2O)[C@](C)(O)C[C@H]1C [syzx-211],4 ug/mi,8 ug/mi,4 ug/mi,0.5 ug/mi,2 ug/mi
C=CCN(CC=C)C[C@]1(O)[C@H](C)O[C@@H](O[C@H]2[C@H](C)[C@@H](O[C@@H]3O[C@H](C)C[C@H](N(C)C)[C@H]3O)[C@](C)(O)C[C@@H](C)N(CCC)C[C@H](C)[C@@H](O)[C@](C)(O)[C@@H](CC)OC(=O)[C@@H]2C)C[C@@]1(C)OC [syzx-214],2 ug/mi,8 ug/mi,2 ug/mi,0.25 ug/mi,4 ug/mi
CCCN1C[C@H](C)[C@@H](O)[C@](C)(O)[C@@H](CC)OC(=O)[C@H](C)[C@@H](O[C@H]2C[C@@](C)(OC)[C@](O)(CNC(=O)C(F)(F)F)[C@H](C)O2)[C@H](C)[C@@H](O[C@@H]2O[C@H](C)C[C@H](N(C)C)[C@H]2O)[C@](C)(O)C[C@H]1C [syzx-215],0.25 ug/mi,0.5 ug/mi,0.25 ug/mi,0.25 ug/mi,0.25 ug/mi
CCCN1C[C@H](C)[C@@H](O)[C@](C)(O)[C@@H](CC)OC(=O)[C@H](C)[C@@H](O[C@H]2C[C@@](C)(OC)[C@](O)(CNC3CC3)[C@H](C)O2)[C@H](C)[C@@H](O[C@@H]2O[C@H](C)C[C@H](N(C)C)[C@H]2O)[C@](C)(O)C[C@H]1C [syzx-217],0.25 ug/mi,0.5 ug/mi,0.25 ug/mi,0.25 ug/mi,0.25 ug/mi
CCCN1C[C@H](C)[C@@H](O)[C@](C)(O)[C@@H](CC)OC(=O)[C@H](C)[C@@H](O[C@H]2C[C@@](C)(OC)[C@](O)(CNc3cccnc3Cl)[C@H](C)O2)[C@H](C)[C@@H](O[C@@H]2O[C@H](C)C[C@H](N(C)C)[C@H]2O)[C@](C)(O)C[C@H]1C [syzx-218],4 ug/mi,8 ug/mi,4 ug/mi,0.25 ug/mi,2 ug/mi
CCCN1C[C@H](C)[C@@H](O)[C@](C)(O)[C@@H](CC)OC(=O)[C@H](C)[C@@H](O[C@H]2C[C@@](C)(OC)[C@](O)(CNC(=O)c3ccccc3)[C@H](C)O2)[C@H](C)[C@@H](O[C@@H]2O[C@H](C)C[C@H](N(C)C)[C@H]2O)[C@](C)(O)C[C@H]1C [syzx-219],4 ug/mi,8 ug/mi,4 ug/mi,0.5 ug/mi,2 ug/mi
CCCN1C[C@H](C)[C@@H](O)[C@](C)(O)[C@@H](CC)OC(=O)[C@H](C)[C@@H](O[C@H]2C[C@@](C)(OC)[C@](O)(CNc3nc(OC)cc(OC)n3)[C@H](C)O2)[C@H](C)[C@@H](O[C@@H]2O[C@H](C)C[C@H](N(C)C)[C@H]2O)[C@](C)(O)C[C@H]1C [syzx-222],2 ug/mi,8 ug/mi,2 ug/mi,0.25 ug/mi,4 ug/mi
CCCN1C[C@H](C)[C@@H](O)[C@](C)(O)[C@@H](CC)OC(=O)[C@H](C)[C@@H](O[C@H]2C[C@@](C)(OC)[C@](O)(CNc3cccc(Br)c3)[C@H](C)O2)[C@H](C)[C@@H](O[C@@H]2O[C@H](C)C[C@H](N(C)C)[C@H]2O)[C@](C)(O)C[C@H]1C [syzx-223],0.25 ug/mi,0.5 ug/mi,0.25 ug/mi,0.25 ug/mi,0.25 ug/mi
CCCN1C[C@H](C)[C@@H](O)[C@](C)(O)[C@@H](CC)OC(=O)[C@H](C)[C@@H](O[C@H]2C[C@@](C)(OC)[C@](O)(CNc3cc(F)ccc3[N+](=O)[O-])[C@H](C)O2)[C@H](C)[C@@H](O[C@@H]2O[C@H](C)C[C@H](N(C)C)[C@H]2O)[C@](C)(O)C[C@H]1C [syzx-226],4 ug/mi,8 ug/mi,4 ug/mi,0.25 ug/mi,2 ug/mi
CCCN1C[C@H](C)[C@@H](O)[C@](C)(O)[C@@H](CC)OC(=O)[C@H](C)[C@@H](O[C@H]2C[C@@](C)(OC)[C@](O)(CNc3ccc(I)cc3)[C@H](C)O2)[C@H](C)[C@@H](O[C@@H]2O[C@H](C)C[C@H](N(C)C)[C@H]2O)[C@](C)(O)C[C@H]1C [syzx-227],4 ug/mi,8 ug/mi,4 ug/mi,0.5 ug/mi,2 ug/mi
CCCN1C[C@H](C)[C@@H](O)[C@](C)(O)[C@@H](CC)OC(=O)[C@H](C)[C@@H](O[C@H]2C[C@@](C)(OC)[C@](O)(CNc3ccc([N+](=O)[O-])cc3[N+](=O)[O-])[C@H](C)O2)[C@H](C)[C@@H](O[C@@H]2O[C@H](C)C[C@H](N(C)C)[C@H]2O)[C@](C)(O)C[C@H]1C [syzx-228],1 ug/mi,2 ug/mi,1 ug/mi,0.25 ug/mi,2 ug/mi
CCCN1C[C@H](C)[C@@H](O)[C@](C)(O)[C@@H](CC)OC(=O)[C@H](C)[C@@H](O[C@H]2C[C@@](C)(OC)[C@](O)(CNc3ccc(C)cc3C)[C@H](C)O2)[C@H](C)[C@@H](O[C@@H]2O[C@H](C)C[C@H](N(C)C)[C@H]2O)[C@](C)(O)C[C@H]1C [syzx-229],4 ug/mi,16 ug/mi,4 ug/mi,0.25 ug/mi,4 ug/mi
CCCN1C[C@H](C)[C@@H](O)[C@](C)(O)[C@@H](CC)OC(=O)[C@H](C)[C@@H](O[C@H]2C[C@@](C)(OC)[C@](O)(CNc3cc(C(F)(F)F)cc(C(F)(F)F)c3)[C@H](C)O2)[C@H](C)[C@@H](O[C@@H]2O[C@H](C)C[C@H](N(C)C)[C@H]2O)[C@](C)(O)C[C@H]1C [syzx-230],2 ug/mi,8 ug/mi,2 ug/mi,0.25 ug/mi,4 ug/mi
CCCN1C[C@H](C)[C@@H](O)[C@](C)(O)[C@@H](CC)OC(=O)[C@H](C)[C@@H](O[C@H]2C[C@@](C)(OC)[C@](O)(CNc3ccc(Cl)cc3Cl)[C@H](C)O2)[C@H](C)[C@@H](O[C@@H]2O[C@H](C)C[C@H](N(C)C)[C@H]2O)[C@](C)(O)C[C@H]1C [syzx-231],0.25 ug/mi,0.5 ug/mi,0.25 ug/mi,0.25 ug/mi,0.25 ug/mi
CCCN1C[C@H](C)[C@@H](O)[C@](C)(O)[C@@H](CC)OC(=O)[C@H](C)[C@@H](O[C@H]2C[C@@](C)(OC)[C@](O)(CNc3cc(Cl)ccc3C)[C@H](C)O2)[C@H](C)[C@@H](O[C@@H]2O[C@H](C)C[C@H](N(C)C)[C@H]2O)[C@](C)(O)C[C@H]1C [syzx-234],4 ug/mi,8 ug/mi,4 ug/mi,0.25 ug/mi,2 ug/mi

# Source: US9765105B2, “Macrolide compound” (Pulike Biological Engineering, Inc., priority 2013, dated 2017)
